Source: ChEMBL document CHEMBL1671725, “The ABC transporter AnrAB contributes to the innate resistance of Listeria monocytogenes to nisin, bacitracin, and various beta-lactam antibiotics” (2010)
Values after ≈ are worked out from the molar mass of the structure shown. Bridge positions count the residues as written; N and C are the ends. Square brackets hold non-standard residues; d marks the D form. Peptide text beside a SMILES is read from it. * marks the point of attachment. Ileψ(thiazoline)Cys = CC[C@H](C)[C@H](N)C1=N[C@H](C(=O)*)CS1; dOrn = NCCC[C@@H](N)C(=O)O

Columns and labels:
Format in all cases: functional
Listeria monocytogenes [1] = test: Antimicrobial activity against anrB-deficient Listeria monocytogenes EGD-e at 30 ug after 16 hrs by disk diffusion assay; conditions: read-out: IZ
Listeria monocytogenes [2] = test: Antimicrobial activity against Listeria monocytogenes EGD-e at 30 ug after 16 hrs by disk diffusion assay; conditions: read-out: IZ
Listeria monocytogenes [3] = test: Antimicrobial activity against anrB-deficient Listeria monocytogenes EGD-e at 10 ug after 16 hrs by disk diffusion assay; conditions: read-out: IZ
Listeria monocytogenes [4] = test: Antimicrobial activity against Listeria monocytogenes EGD-e at 10 ug after 16 hrs by disk diffusion assay; conditions: read-out: IZ
Listeria monocytogenes [5] = test: Antimicrobial activity against anrB-deficient Listeria monocytogenes EGD-e assessed as growth inhibition after 16 hrs by broth dilution method relative to wild type
Listeria monocytogenes [6] = test: Antimicrobial activity against Listeria monocytogenes EGD-e assessed as growth inhibition after 16 hrs by broth dilution method
Listeria monocytogenes [7] = test: Antimicrobial activity against anrB-deficient Listeria monocytogenes EGD-e assessed as growth inhibition after 16 hrs by broth dilution method
Listeria monocytogenes [8] = test: Antimicrobial activity against anrB-deficient Listeria monocytogenes EGD-e at 1 ug after 16 hrs by disk diffusion assay; conditions: read-out: IZ
Listeria monocytogenes [9] = test: Antimicrobial activity against Listeria monocytogenes EGD-e at 1 ug after 16 hrs by disk diffusion assay; conditions: read-out: IZ
Listeria monocytogenes [10] = test: Antimicrobial activity against virR-deficient Listeria monocytogenes EGD-e assessed as growth inhibition after 16 hrs by broth dilution method
Listeria monocytogenes [11] = test: Antimicrobial activity against telA-deficient Listeria monocytogenes EGD-e assessed as growth inhibition after 16 hrs by broth dilution method
Listeria monocytogenes [12] = test: Antimicrobial activity against mprF-deficient Listeria monocytogenes EGD-e assessed as growth inhibition after 16 hrs by broth dilution method
Listeria monocytogenes [13] = test: Antimicrobial activity against telA-deficient Listeria monocytogenes EGD-e assessed as growth inhibition after 16 hrs by broth dilution method relative to wild type
Listeria monocytogenes [14] = test: Antimicrobial activity against mprF-deficient Listeria monocytogenes EGD-e assessed as growth inhibition after 16 hrs by broth dilution method relative to wild type
Listeria monocytogenes [15] = test: Antimicrobial activity against lisK-deficient Listeria monocytogenes EGD-e assessed as growth inhibition after 16 hrs by broth dilution method
Listeria monocytogenes [16] = test: Antimicrobial activity against virR-deficient Listeria monocytogenes EGD-e assessed as growth inhibition after 16 hrs by broth dilution method relative to wild type
Listeria monocytogenes [17] = test: Antimicrobial activity against lisK-deficient Listeria monocytogenes EGD-e assessed as growth inhibition after 16 hrs by broth dilution method relative to wild type
Listeria monocytogenes [18] = test: Antimicrobial activity against Listeria monocytogenes EGD-e at 5 ug after 16 hrs by disk diffusion assay; conditions: read-out: IZ
Listeria monocytogenes [19] = test: Antimicrobial activity against anrB-deficient Listeria monocytogenes EGD-e at 5 ug after 16 hrs by disk diffusion assay; conditions: read-out: IZ
Listeria monocytogenes [20] = test: Antimicrobial activity against Listeria monocytogenes EGD-e at 100 ug after 16 hrs by disk diffusion assay; conditions: read-out: IZ
Listeria monocytogenes [21] = test: Antimicrobial activity against anrB-deficient Listeria monocytogenes EGD-e at 100 ug after 16 hrs by disk diffusion assay; conditions: read-out: IZ

Row | SMILES | zone of inhibition at 30 µg/disc (Listeria monocytogenes [1]) | zone of inhibition at 30 µg/disc (Listeria monocytogenes [2]) | fold change (FC) (Listeria monocytogenes [5]) | MIC (Listeria monocytogenes [6]) | MIC (Listeria monocytogenes [7]) | other results
1 | C[C@@H](O)[C@H]1C(=O)N2C(C(=O)O)=C(SCCNC=N)C[C@H]12 [IMIPENEM ANHYDROUS] | 42.3 mm | 39.7 mm |  |  |  | 
2 | CC1(C)S[C@@H]2[C@H](NC(=O)[C@H](N)c3ccccc3)C(=O)N2[C@H]1C(=O)O [AMPICILLIN] |  |  | 2 | 1 µg/mL (≈ 2.86 µM) | 0.5 µg/mL (≈ 1.43 µM) | zone of inhibition at 10 µg/disc (Listeria monocytogenes [3]): 36.6 mm; zone of inhibition at 10 µg/disc (Listeria monocytogenes [4]): 32.8 mm
3 | CC(C)(O/N=C(\C(=O)N[C@@H]1C(=O)N2C(C(=O)[O-])=C(C[n+]3ccccc3)CS[C@H]12)c1csc(N)n1)C(=O)O [CEFTAZIDIME] | 7.8 mm | 6.1 mm |  |  |  | 
4 | CC(=O)OCC1=C(C(=O)O)N2C(=O)[C@@H](NC(=O)Cc3cccs3)[C@H]2SC1 [CEPHALOTHIN] | 33.6 mm | 30.3 mm |  |  |  | 
5 | CCN1CCN(C(=O)N[C@@H](C(=O)N[C@@H]2C(=O)N3C(C(=O)O)=C(CSc4nnnn4C)CS[C@H]23)c2ccc(O)cc2)C(=O)C1=O [CEFOPERAZONE] | 24 mm | 20.6 mm |  |  |  | 
6 | C/C=C(/NC(=O)[C@H](CCCCN)NC(=O)[C@H](C)NC(=O)[C@H]1CS[C@@H](C)[C@@H](NC(=O)[C@H]2CSC[C@@H](NC(=O)[C@H](C)NC(=O)[C@@H](N)[C@@H](C)CC)C(=O)N[C@@H](CCCCN)C(=O)N[C@@H](Cc3ccccc3)C(=O)N[C@@H](CC(C)C)C(=O)N2)C(=O)N2CCC[C@H]2C(=O)NCC(=O)N1)C(=O)NCC(=O)N[C@@H]1CSC[C@H]2NC(=O)[C@H](Cc3ccc(O)cc3)NC(=O)[C@@H](CS/C=C/NC2=O)NC(=O)[C@H](CC(N)=O)NC(=O)[C@H](Cc2ccccc2)NC1=O [GALLIDERMIN] |  |  | 4 | 2 µg/mL (≈ 0.924 µM) | 0.5 µg/mL (≈ 0.231 µM) | 
7 | CCN1CCN(C(=O)N[C@@H](C(=O)N[C@@H]2C(=O)N3[C@@H]2SC(C)(C)[C@@H]3C(=O)O)c2ccccc2)C(=O)C1=O [PIPERACILLIN] | 35.3 mm | 30.7 mm |  |  |  | 
8 | N[C@@H](C(=O)N[C@@H]1C(=O)N2C(C(=O)O)=C(Cl)CS[C@H]12)c1ccccc1 [CEFACLOR ANHYDROUS] | 24.8 mm | 22.2 mm |  |  |  | 
9 | CO/N=C(\C(=O)N[C@@H]1C(=O)N2C(C(=O)O)=C(COC(C)=O)CS[C@H]12)c1csc(N)n1 [CEFOTAXIME] | 22.5 mm | 19.6 mm | 2 | 2 µg/mL (≈ 4.39 µM) | 1 µg/mL (≈ 2.2 µM) | 
10 | Cc1onc(-c2ccccc2)c1C(=O)N[C@@H]1C(=O)N2[C@@H]1SC(C)(C)[C@@H]2C(=O)O [OXACILLIN] |  |  |  |  |  | zone of inhibition at 1 µg/disc (Listeria monocytogenes [8]): 11.9 mm; zone of inhibition at 1 µg/disc (Listeria monocytogenes [9]): 9.6 mm
11 | CC[C@H](C)[C@H](N)C1=N[C@H](C(=O)N[C@@H](CC(C)C)C(=O)N[C@H](CCC(=O)O)C(=O)N[C@H](C(=O)N[C@H]2CCCCNC(=O)[C@H](CC(N)=O)NC(=O)[C@@H](CC(=O)O)NC(=O)[C@H](Cc3cnc[nH]3)NC(=O)[C@@H](Cc3ccccc3)NC(=O)[C@H]([C@@H](C)CC)NC(=O)[C@@H](CCCN)NC2=O)[C@@H](C)CC)CS1 [BACITRACIN] ({Ileψ(thiazoline)Cys}-L[dE]IK[dOrn]I[dF]H[dD]N; lactam 4-C) |  |  | 8 | 256 µg/mL (≈ 180 µM) | 32 µg/mL (≈ 22.5 µM) | zone of inhibition at 10 µg/disc (Listeria monocytogenes [3]): 20 mm; MIC (Listeria monocytogenes [10]): 2 µg/mL (≈ 1.41 µM); MIC (Listeria monocytogenes [11]): 128 µg/mL (≈ 90 µM); zone of inhibition at 10 µg/disc (Listeria monocytogenes [4]): 10.5 mm; MIC (Listeria monocytogenes [12]): 64 µg/mL (≈ 45 µM); Ratio (Listeria monocytogenes [13]): -2; Ratio (Listeria monocytogenes [14]): -4; MIC (Listeria monocytogenes [15]): 128 µg/mL (≈ 90 µM); Ratio (Listeria monocytogenes [16]): -128; Ratio (Listeria monocytogenes [17]): -2
12 | CC1=C(C(=O)O)N2C(=O)[C@@H](NC(=O)[C@H](N)c3ccccc3)[C@H]2SC1 [CEPHALEXIN ANHYDROUS] | 14.8 mm | 12.2 mm |  |  |  | 
13 | CC1=C(C(=O)O)N2C(=O)[C@@H](NC(=O)[C@H](N)C3=CCC=CC3)[C@H]2SC1 [CEPHRADINE] | 16.9 mm | 13.6 mm |  |  |  | 
14 | CO[C@@]1(NC(=O)CSCC#N)C(=O)N2C(C(=O)O)=C(CSc3nnnn3C)CS[C@@H]21 [CEFMETAZOLE] | 34.2 mm | 31.4 mm |  |  |  | 
15 | C=C(NC(=O)[C@@H](NC(=O)[C@H](Cc1cnc[nH]1)NC(=O)[C@@H](NC(=O)[C@H](CO)NC(=O)[C@@H]1CS[C@@H](C)[C@H]2NC(=O)C(=C)NC(=O)[C@H](NC(=O)[C@H](CCCCN)NC(=O)[C@H](CCSC)NC(=O)[C@H](CC(N)=O)NC(=O)[C@@H]3CS[C@@H](C)[C@@H](NC(=O)[C@H](CCCNN)NC(=O)[C@@H]4CS[C@@H](C)[C@@H](NC(=O)[C@@H]5CSC[C@@H](NC(=O)/C(=C\C)NC(=O)[C@@H](N)[C@@H](C)CC)C(=O)N[C@@H]([C@@H](C)CC)C(=O)NC(=C)C(=O)N[C@@H]([C@@H](C)CC)C(=O)N5)C(=O)N5CCC[C@H]5C(=O)NCC(=O)N4)C(=O)NCC(=O)N[C@@H](C)C(=O)N[C@@H]([C@@H](C)CC)C(=O)N[C@@H](CCSC)C(=O)NCC(=O)N3)[C@H](C)SC[C@H](NC2=O)C(=O)N[C@H](Cc2cnc[nH]2)C(=O)N1)[C@@H](C)CC)C(C)C)C(=O)N[C@@H](CCCCN)C(=O)O [NISIN] |  |  | 2 |  |  | Ratio (Listeria monocytogenes [13]): -2; Ratio (Listeria monocytogenes [14]): -16; Ratio (Listeria monocytogenes [16]): -32; Ratio (Listeria monocytogenes [17]): 2
16 | CC1(C)S[C@@H]2[C@H](NC(=O)Cc3ccccc3)C(=O)N2[C@H]1C(=O)O [PENICILLIN G] |  |  | 2 | 0.72 µg/mL (≈ 2.15 µM) | 0.36 µg/mL (≈ 1.08 µM) | zone of inhibition at 5 µg/disc (Listeria monocytogenes [18]): 30.5 mm; zone of inhibition at 5 µg/disc (Listeria monocytogenes [19]): 34.7 mm
17 | CC1(C)S[C@@H]2[C@H](NC(=O)C(C(=O)O)c3ccccc3)C(=O)N2[C@H]1C(=O)O (stereo partly drawn) [CARBENICILLIN] |  |  |  |  |  | zone of inhibition at 100 µg/disc (Listeria monocytogenes [20]): 36.7 mm; zone of inhibition at 100 µg/disc (Listeria monocytogenes [21]): 43 mm
18 | CO/N=C(\C(=O)N[C@@H]1C(=O)N2C(C(=O)O)=C(COC(N)=O)CS[C@H]12)c1ccco1 [CEFUROXIME] | 24.8 mm | 21.3 mm | 2 | 2.87 µg/mL (≈ 6.76 µM) | 1.44 µg/mL (≈ 3.39 µM) | 
